From paper PMC6629894, “Ruthenium Complexes Containing Heterocyclic Thioamidates Trigger Caspase-Mediated Apoptosis Through MAPK Signaling in Human Hepatocellular Carcinoma Cells” (Frontiers in Oncology, 2019)

Legend:
[1] = tested on: HL-60 (human promyelocytic leukemia); experiment: Alamar blue cytotoxicity assay, 72 h; format: cell-based
How it was run: (§1)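 Exposure lasted 72 h at 37°C with complexes from 0.19 to 25 μg/mL, vehicle 0.5% DMSO. Adherent lines plated at 7 × 10^4 cells/mL, suspension lines at 3 × 10^5 cells/mL. Resazurin added for the final 4 h before dual-wavelength absorbance reading.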

[2] = tested on: HSC-3 (human oral squamous cell carcinoma); experiment: Alamar blue cytotoxicity assay, 72 h; format: cell-based
How it was run: as §1

[3] = tested on: HCT116 (human colon carcinoma); experiment: Alamar blue cytotoxicity assay, 72 h; format: cell-based
How it was run: as §1

[4] = tested on: SCC-4 (human oral squamous cell carcinoma); experiment: Alamar blue cytotoxicity assay, 72 h; format: cell-based
How it was run: as §1

[5] = tested on: MCF-7 (human breast carcinoma); experiment: Alamar blue cytotoxicity assay, 72 h; format: cell-based
How it was run: as §1

human topoisomerase IB = tested on: human topoisomerase IB; design: method as in PMID 26795676; settings: ref [18], [19]; cited from earlier work
[6] = tested on: cancer cells with different histological types; experiment: Cytotoxicity, summary over the panel of cancer cells; format: cell-based; settings: read-out: IC50 values against cancer cells (summary)
Procedure: Cytotoxicity was measured colorimetrically using an Alamar blue method that was performed as previously described ([20], [21]). Cells were seeded in 96-well plates for all experiments (7 × 10^4 cells/mL for adherent cells or 3 × 10^5 cells/mL for suspension cells in 100 μL of medium) and incubated overnight at 37°C with 5% CO2 to allow for adherence. The complexes were dissolved in 0.5% dimethyl sulfoxide (DMSO, Vetec Química Fina) at eight different concentrations from 0.19 to 25 μg/mL and were added to each well and incubated for 72 h. The negative control was treated with the vehicle (0.5% DMSO) that was used to solubilize and dilute the complexes. […] Four (for cell lines) or 24 h (for PBMCs) before the end of incubation, 20 μL of a stock solution (0.312 mg/mL) of resazurin (Sigma-Aldrich Co.) was added to each well. Absorbance was measured at 570 and 600 nm using a SpectraMax 190 Microplate Reader (Molecular Devices, Sunnyvale, CA, USA).

[7] = tested on: HepG2 cells engrafted in C.B-17 SCID mice; experiment: Human hepatocellular carcinoma xenograft model; format: in vivo; settings: for mean tumor mass: 21 days (negative control 0.6 ± 0.1 g); for tumor mass inhibition rates: 0.5 and 1 mg/kg/day i.p.
Procedure: A total of 64 C.B-17 severe-combined immunodeficiency (SCID) mice (females, 25–30 g) were obtained and maintained at the animal facilities from Gonçalo Moniz Institute-FIOCRUZ (Salvador, Bahia, Brazil). Animals were housed in cages with free access to food and water. All animals were kept under a 12:12-h light-dark cycle (lights on at 6:00 a.m.). The animals were treated according to the ethical principles for animal experimentation of SBCAL (Brazilian Association of Laboratory Animal Science), Brazil. The Animal Ethics Committee of Gonçalo Moniz Institute–FIOCRUZ (Salvador, Bahia, Brazil) approved the experimental protocol (number 06/2015). Animal welfare was monitored throughout the study, and the pain and suffering were minimized.

ERK1/2 (pT202/pY204) = experiment: Phosflow analysis of phosphorylated MAPK; format: cell-based, human; settings: HepG2, 10 μM, 15 min
Procedure: (§2) Phosphorylated extracellular signal-regulated kinase (ERK), JNK/SAPK and p38 MAPK were quantified by flow cytometry as previously described ([26]). The cells were collected and resuspended in 0.5–1 mL of 4% formaldehyde and fixed for 10 min at 37°C. Then, the tubes were chilled on ice for 1 min. The cells were permeabilized by slowly adding ice-cold 100% methanol to the cooled cells while gently vortexing to a final concentration of 90% methanol and incubating for 30 min on ice. After washing with incubation buffer (0.5% bovine serum albumin in PBS), PE mouse anti-JNK/SAPK (pT183/pY185) (ID 562480), PE mouse anti-p38 MAPK (pT180/pY182) (ID 612565), PE mouse anti-ERK1/2 (pT202/pY204) (ID 612566) or PE mouse IgG1,κ isotype control (ID 555749) antibodies, all from BD Biosciences, were added and incubated for 1 h at room temperature. Finally, the cells were washed with PBS, and the cell fluorescence was measured by flow cytometry.
(§3) For all flow cytometry analyses, at least 10^4 events were recorded per sample using a BD LSRFortessa cytometer, BD FACSDiva Software (BD Biosciences) and FlowJo Software 10 (FlowJo Lcc; Ashland, OR, USA). Cellular debris was omitted from the analysis.

p38 MAPK (pT180/pY182) = experiment: Phosflow analysis of phosphorylated MAPK; format: cell-based, human; settings: HepG2, 10 μM
Procedure: as §2, §3

HepG2 cells [8] = experiment: DNA content: internucleosomal DNA fragmentation and cell cycle distribution by flow cytometry; format: cell-based, human; settings: 24 and 48 h
Procedure: (§4) For all subsequent in vitro experiments, 2 mL of a suspension of HepG2 cells were seeded (7 × 10^4 cells/mL) and incubated in a 24-well plate overnight to allow the cells to adhere to the plate surface.
In this assay, cells were harvested in a permeabilization solution containing 0.1% Triton X-100, 2 μg/mL propidium iodide, 0.1% sodium citrate and 100 μg/mL RNAse (all from Sigma-Aldrich Co.) and incubated in the dark for 15 min at room temperature.
as §3

HepG2 cells [9] = experiment: Cell morphology: May-Grunwald-Giemsa staining and light scattering; format: cell-based, human; settings: 24 and 48 h
Procedure: as §4
To evaluate alterations in the morphology, cells were cultured on a coverslip and stained with May-Grunwald-Giemsa. Morphological changes were examined by light microscopy (Olympus BX41) using Image-Pro software (Media Cybernetics).

| Compound | Selectivity index (SI = IC50 [noncancerous cells]/IC50 [cancer cells]) ([1]; MRC-5 vs HL-60) | Selectivity index (SI = IC50 [noncancerous cells]/IC50 [cancer cells]) ([1]; PBMCs vs HL-60) | Selectivity index (SI = IC50 [noncancerous cells]/IC50 [cancer cells]) ([2]; MRC-5 vs HSC-3) | Selectivity index (SI = IC50 [noncancerous cells]/IC50 [cancer cells]) ([2]; PBMCs vs HSC-3) | Selectivity index (SI = IC50 [noncancerous cells]/IC50 [cancer cells]) ([3]; MRC-5 vs HCT116) | Selectivity index (SI = IC50 [noncancerous cells]/IC50 [cancer cells]) ([3]; PBMCs vs HCT116) | Selectivity index (SI = IC50 [noncancerous cells]/IC50 [cancer cells]) ([4]; MRC-5 vs SCC-4) | Selectivity index (SI = IC50 [noncancerous cells]/IC50 [cancer cells]) ([4]; PBMCs vs SCC-4) | Selectivity index (SI = IC50 [noncancerous cells]/IC50 [cancer cells]) ([5]; MRC-5 vs MCF-7) | Selectivity index (SI = IC50 [noncancerous cells]/IC50 [cancer cells]) ([5]; PBMCs vs MCF-7) | supercoiled DNA relaxation mediated by human topoisomerase IB (human topoisomerase IB) | IC50 [6] [µM] | mean tumor mass ([7]; 0.5 mg/kg/day i.p.) [g] | mean tumor mass ([7]; 1 mg/kg/day i.p.) [g] | tumor mass inhibition rates ([7]; 21 days) | other results |
| --- | --- | --- | --- | --- | --- | --- | --- | --- | --- | --- | --- | --- | --- | --- | --- | --- |
| F[P-](F)(F)(F)(F)F.[Ru+2].[S-]C1=NCCS1.c1ccc(-c2ccccn2)nc1.c1ccc(P(CCCCP(c2ccccc2)c2ccccc2)c2ccccc2)cc1 [Complex 2, [Ru(tzdt)(bipy)(dppb)]PF6] | 1.5 | 2.4 | 0.7 | 1.2 | 0.6 | 1.0 | 0.4 | 0.7 | 0.2 | 0.4 | inhibit the supercoiled DNA relaxation | < 10 | 0.3 ± 0.1 | 0.2 ± 0.1 | 46.9–67.7% | IC50 ([5]; read-out: IC50 and 95% CI, MCF-7, 72 h): 7.3 µM; fibrosis in tumor histology ([7]; 1 mg/kg/day): most evident fibrosis |
| Cn1ccnc1[S-].F[P-](F)(F)(F)(F)F.[Ru+2].c1ccc(-c2ccccn2)nc1.c1ccc(P(CCCCP(c2ccccc2)c2ccccc2)c2ccccc2)cc1 [Complex 1, [Ru(mmi)(bipy)(dppb)]PF6] | – | – | – | – | – | – | – | – | – | – | inhibit the supercoiled DNA relaxation | < 10 | 0.4 ± 0.1 | 0.3 ± 0.1 | 31.5–45.4% | phosphorylation of ERK1/2 (ERK1/2 (pT202/pY204)): induced the phosphorylation of ERK1/2; phosphorylation of p38 MAPK (p38 MAPK (pT180/pY182)): no significant increase |
| COc1cccc2c1C(=O)c1c(O)c3c(c(O)c1C2=O)C[C@@](O)(C(=O)CO)C[C@@H]3O[C@H]1C[C@H](N)[C@H](O)[C@H](C)O1 [Doxorubicin, reference compound] | 2.0 | 12.5 | 0.8 | 5.0 | 1.3 | 8.3 | 0.1 | 0.6 | 1.0 | 6.3 | – | – | – | – | – | IC50 ([4]; Homo sapiens, SCC-4, 72 h, read-out: IC50 and 95% CI): 4 µM; cell cycle distribution (HepG2 cells [8]; 2 μM): cell cycle arrest at the G2/M phase; internucleosomal DNA fragmentation (sub-G0/G1) (HepG2 cells [8]): DNA fragmentation; cell morphology (HepG2 cells [9]): apoptosis-related morphological alterations; reduction of tumor weight vs negative control ([7]; 0.3 mg/kg/day i.p., 21 days): 36.8% |
